Test results reported in patent US9055743B2, “Alpha, beta-unsaturated imines” (BAYER INTELLECTUAL PROPERTY GMBH, priority 2010, dated 2015).

Columns and labels:
Type in all cases: in vivo
Aedes aegypti = assay: Aedes test (AEDSAE surface treatment); settings: for knock-down activity: 100 mg/m^2, two hours after contact, exposition 30 minutes; for mortality at 100 mg/m2: Aedes aegypti, read-out: activity (mortality in %); for Kill rate in % after 24 h: active compound concentration 1.6 g/ha
Outline: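 Compound dissolved in acetone (2 mg/ml) and dried onto a glazed tile; adult mosquitoes exposed for 30 minutes. Knock-down % scored at 2 hours and mortality % at 24 hours after contact (100% = all killed).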

[1] = test system: cat fleas (Ctenocephalides felis, fully sensitive laboratory strain); assay: Contact test against fleas in-vitro (CTECFE contact); settings: for activity against cat fleas: 500 g/ha, after 48 h
Outline: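 Test tubes coated from acetone solutions by rotation, top concentration 500 g/ha (500 μg/dm^2) on tube surface, serial 1:5 dilutions. 10-20 CO2-anesthetized adult fleas held at room temperature for 24 and 48 h. Activity scored versus acetone control: knock-down or death of all fleas = 100%.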

[2] = test system: Anopheles gambiae (homocygus kdr); assay: Anopheles test (ANPHGB surface treatment); settings: for knock-down activity: 100 mg/m^2, two hours after contact, exposition 30 minutes; for mortality at 100 mg/m2: Anopheles gambiae, read-out: activity (mortality in %); for Kill rate in % after 24 hours: active compound concentration 1.6 g/ha
Outline: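 Compound dissolved in acetone at 2 mg/ml, pipetted onto glazed tile and dried; adult kdr-homozygous mosquitoes exposed on the tile for 30 min. Knock-down (%) read 2 h and mortality (%) 24 h after contact.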

[3] = test system: larvae of the mustard beetle (Phaedon cochleariae); assay: Phaedon test (PHAECO spray treatment); settings: 500 g/ha, spray, after 7 days; for pest or weed control at 500 g/ha: Phaedon cochleariae, 168 h, read-out: activity (beetle larvae killed)
Outline: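 Chinese cabbage leaf discs sprayed with compound formulated in acetone/dimethylformamide with alkylaryl polyglycol ether emulsifier, diluted in emulsifier-containing water to the desired concentration. After drying, discs were populated with mustard beetle larvae.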

Lucilia cuprina larvae = assay: Lucilia cuprina test (LUCICU); settings: 100 ppm, after 2 days
Outline: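 Horsemeat treated with compound (DMSO concentrate diluted in water) was populated with about 20 L. cuprina larvae. Percent kill was scored after 2 days, from 100% (all larvae dead) to 0% (none dead).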

[4] = test system: green peach aphid (Myzus persicae); assay: Myzus test (MYZUPE spray treatment); settings: 500 g/ha, spray, after 6 days; for pest or weed control at 500 g/ha: Myzus persicae, 144 h, read-out: activity (aphids killed)
Outline: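 Chinese cabbage leaf discs infested with all aphid stages were sprayed with compound in acetone/DMF with emulsifier, diluted in emulsifier-containing water. Mortality in % assessed after 6 days (100% = all aphids killed).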

Boophilus microplus = Boophilus microplus test (BOOPMI injection); settings: for activity (100% = none of the ticks has laid any fertile eggs): 20 μg/animal, injection into the abdomen, after 7 days
Outline: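 Ticks injected in the abdomen with compound in DMSO, then held in a climatized room. Effect scored after 7 days as % reduction in fertile egg laying, 100% meaning no fertile eggs.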

Musca domestica = Musca domestica test (MUSCDO); settings: 100 ppm, after 2 days
Experimental: Musca domestica Test (MUSCDO)
Solvent: Dimethyl Sulphoxide
To produce a suitable preparation of active compound, 10 mg of active compound are mixed with 0.5 ml of dimethyl sulphoxide and the concentrate is diluted with water to the desired concentration. Vessels containing a sponge treated with the active compound preparation of the desired concentration are populated with adult Musca domestica.
After 2 days, the kill in % is determined 100% means that all flies have been killed; 0% means that none of the flies have been killed.

Ctenocephalides felis = Ctenocephalides felis oral test (CTECFE); settings: 100 ppm in citrated cattle blood, after two days
Outline: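 About 20 unfed adult C. felis fed through a parafilm membrane on citrated cattle blood containing compound (DMSO stock diluted to the desired concentration). Kill (%) determined after two days; 100% = all fleas dead, 0% = none dead.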

Cc1ccc(N=C2C(=CSc3ccc(F)cc3)CCc3ccccc32)cc1 [Example 1-9]
knock-down activity (Aedes aegypti): 100%
mortality at 100 mg/m2 (Aedes aegypti): 100%
Kill rate in % after 24 h (Aedes aegypti): 75%
activity against cat fleas [1]: 100%
Kill rate in % after 2 days ([1]; active compound concentration 0.032 g/ha): 100%
knock-down activity [2]: 100%
mortality at 100 mg/m2 [2]: 100%
Kill rate in % after 24 hours [2]: 100%
pest or weed control at 500 g/ha [3]: 100%
activity (kill in %) (Lucilia cuprina larvae): 100%
pest or weed control at 500 g/ha [4]: 100%
activity (100% = none of the ticks has laid any fertile eggs) (Boophilus microplus): 100%
activity (kill in %) (Musca domestica): 90%
activity (kill in %) (Ctenocephalides felis): 100%

Cc1ccc(N=C2C(=CSc3ccc(F)cc3)CCc3cc(F)ccc32)cc1 [Example 1-16]
knock-down activity (Aedes aegypti): 100%
mortality at 100 mg/m2 (Aedes aegypti): 100%
Kill rate in % after 24 h (Aedes aegypti): 90%
activity against cat fleas [1]: 100%
knock-down activity [2]: 100%
mortality at 100 mg/m2 [2]: 100%
Kill rate in % after 24 hours [2]: 80%
pest or weed control at 500 g/ha [3]: 100%
activity (kill in %) (Lucilia cuprina larvae): 100%
pest or weed control at 500 g/ha [4]: 100%
activity (100% = none of the ticks has laid any fertile eggs) (Boophilus microplus): 100%
Kill rate in % after 7 days (Boophilus microplus; active compound concentration 0.16 μg/animal): 90%
activity (kill in %) (Musca domestica): 80%
activity (kill in %) (Ctenocephalides felis): 100%

Cc1ccc(N=C2C(=CSc3ccc(C)cc3)CCc3ccccc32)cc1 [Example 1-28]
knock-down activity (Aedes aegypti): 80%
activity against cat fleas [1]: 100%
knock-down activity [2]: 100%
activity (beetle larvae killed) [3]: 100%
activity (kill in %) (Lucilia cuprina larvae): 100%
activity (aphids killed) [4]: 90%
activity (100% = none of the ticks has laid any fertile eggs) (Boophilus microplus): 100%
activity (kill in %) (Musca domestica): 80%
activity (kill in %) (Ctenocephalides felis): 100%

Cc1ccc(N=C2C(=CSc3ccc(F)cc3)CSc3ccccc32)cc1 [Example 1-35]
knock-down activity (Aedes aegypti): 90%
mortality at 100 mg/m2 (Aedes aegypti): 100%
Kill rate in % after 24 h (Aedes aegypti): 100%
activity against cat fleas [1]: 100%
knock-down activity [2]: 100%
mortality at 100 mg/m2 [2]: 100%
Kill rate in % after 24 hours [2]: 100%
pest or weed control at 500 g/ha [3]: 100%
activity (kill in %) (Lucilia cuprina larvae): 100%
pest or weed control at 500 g/ha [4]: 100%
activity (100% = none of the ticks has laid any fertile eggs) (Boophilus microplus): 100%
activity (kill in %) (Ctenocephalides felis): 100%

Cc1ccc(N=C2C(=CSc3ccc(F)cc3)C(C)c3ccccc32)cc1 (stereo not shown) [Example 1-57]
knock-down activity (Aedes aegypti): 100%
mortality at 100 mg/m2 (Aedes aegypti): 100%
activity against cat fleas [1]: 100%
knock-down activity [2]: 80%
mortality at 100 mg/m2 [2]: 100%
Kill rate in % after 24 hours [2]: 100%
pest or weed control at 500 g/ha [3]: 100%
activity (kill in %) (Lucilia cuprina larvae): 100%
pest or weed control at 500 g/ha [4]: 100%
activity (100% = none of the ticks has laid any fertile eggs) (Boophilus microplus): 100%
activity (kill in %) (Musca domestica): 85%
activity (kill in %) (Ctenocephalides felis): 100%
